According to paper PMC5502055, “Phase II study of lanreotide autogel in Japanese patients with unresectable or metastatic well-differentiated neuroendocrine tumors” (Investigational New Drugs, 2017):
Like-named read-outs stand apart in the source and are kept apart here.

Tests used:
serum CgA = assay: Serum chromogranin A (CgA) concentration; type: in vivo, human; conditions: 15 of 17 patients with baseline CgA >100 ng/mL
Protocol: Serum CgA, serum anti-lanreotide antibody, and serum lanreotide testing methods are described in the Electronic Supplementary Material.
In the primary analysis, the CBR point estimate at 24 weeks after the first injection and an exact F distribution-based 95% confidence interval (CI) were calculated. The CBR was selected as the primary endpoint, because maintaining SD was deemed beneficial and clinically meaningful for NET patients. In the secondary analysis, Kaplan–Meier curves of PFS and OS were prepared, and median values and 95% CIs were calculated. The ORRs at 24, 48, and 60 weeks after the first injection were also calculated. Regarding percent changes from baseline in the sum of the diameters of target lesion, descriptive statistics were calculated for each evaluation time point, and waterfall plots of the best response and last evaluation time points were prepared. Regarding the serum CgA concentration and QOL evaluation, descriptive statistics of changes from baseline were calculated for each time point. For all endpoints, the starting point of evaluation was set as the baseline for the phase II study.
Serum chromogranin A concentrations were determined centrally every 12 weeks for the 48-weeks period following the start of administration, and every 24 weeks thereafter (SRL Medisearch Inc.,Tokyo,Japan, Kit Cisbio).

[1] = tested on: Japanese patients with grade (G) 1/G2 NET; assay: Safety: adverse events (NCI-CTCAE ver. 4.0); type: in vivo, human; conditions: for Adverse events (any): N=32
Protocol: (§1) For the safety evaluation, adverse events (AEs) were recorded after the first injection until the point of data cutoff (December 2015) in the extension study. AE severity was assessed according to the National Cancer Institute Common Terminology Criteria for Adverse Events (NCI-CTCAE) ver. 4.0. Gallbladder echography and blood evaluations, including serum anti-lanreotide antibody tests were performed every 12 weeks during the 48 -week period after the first injection, and every 24 weeks thereafter.
(§2) Full analysis set (FAS) and CLARINET-like FAS which was satisfied eligibility criteria of the CLARINET study were used for efficacy analysis. Safety analysis set which included patients who had received the study drug at least once was used for safety analysis. Per protocol set (PPS) was used for pharmacokinetic analysis.
Safety was evaluated using results which obtained by the data in the phase II and extension studies up to the time of data cutoff. The maximum exposure period from baseline to the time of data cutoff was 100.0 weeks (median, 87.3 weeks), and the mean exposure period (SD) was 83.1 weeks (15.2 weeks).
Adverse events were evaluated using the National Cancer Institute Common Terminology Criteria for Adverse Events (NCI-CTCAE), ver. 4.0.

[2] = Serum anti-lanreotide antibody test (radioimmunoprecipitation assay); type: in vivo, human
Protocol: as §1
Serum anti-lanreotide antibody levels were determined every 4 weeks for the 24-weeks period following the start of administration, and every 12 weeks thereafter for the 48-weeks. Serum anti-lanreotide antibody levels were centrally determined using a validated radioimmunoprecipitation assay (RIPA; SGS Cephac, Saint-Benoît, France). Anti-lanreotide antibody-positivity was evaluated in two stages: screening test and confirmation test. Antibody titers were determined for samples found to be positive in the confirmation test.

[3] = Pharmacokinetics: serum lanreotide concentration (radioimmunoassay); type: in vivo, human
Protocol: as §2
Regarding pharmacokinetics evaluations, serum lanreotide concentrations were determined on the day of first administration (before and 2 and 4 h after administration of the study drug) and at 4, 8, 12, 16, and 20 (before and 2 and 4 h after administration of the study drug), 24, 36, and 48 weeks after the start of administration (or at the time of discontinuation). Serum lanreotide concentrations were centrally determined using a validated radioimmunoassay (RIA; Kymos Pharma Services S.L., Barcelona, Spain).

[4] = tested on: non-functional enteropancreatic NET; conditions: CLARINET study, cited from earlier work
Source text: Tumors occurring in nerves or endocrine cells anywhere in the body can be classified as neuroendocrine neoplasm (NEN). NEN is classified into poorly-differentiated neuroendocrine carcinoma and well-differentiated neuroendocrine tumor (NET). NET is a rare disease and tends to proliferate slowly. According to an epidemiological survey conducted in Japan in 2010, the incidence of new pancreatic and gastrointestinal NET was 4.78 per 100,000 people (estimated number of patients treated: 11,467). The incidences of NET other than pancreatic and gastrointestinal NET remain unknown in Japan, wher ... || Furthermore, in the CLARINET study, a median PFS was not reached at 96 weeks (24 months), in contrast to the median PFS of 36.3 weeks (based on the RECIST ver. 1.1) in the present study. This difference is attributed to differences in baseline disease characteristics of the patient and tumor characteristics. The percentages of patients with PD at baseline and prior treatment for NET were 39.3% (11/28 patients) and 78.6% (22/28 patients), respectively, in the present, and only 4.0% (4/101 patients) and 15.8% (16/101 patients), respectively, in the CLARINET study. The current Japanese stud ...

[5] = CLARINET study; cited from earlier work
Source text: No interracial differences were observed regarding drug concentrations in the blood. This inter-study difference in the number of treatment required to achieve steady state is attributed to the associated with the low num ...

With `CC(C)[C@@H]1NC(=O)[C@H](CCCCN)NC(=O)[C@@H](Cc2c[nH]c3ccccc23)NC(=O)[C@H](Cc2ccc(O)cc2)NC(=O)[C@@H](NC(=O)[C@H](N)Cc2ccc3ccccc3c2)CSSC[C@@H](C(=O)N[C@H](C(N)=O)[C@@H](C)O)NC1=O` [lanreotide] the “patients with serum CgA decrease of ≥50% by last examination relative to baseline” value (serum CgA) was 88.2%, the “Serious AEs” value ([1]; 6 patients of 32) was 18.8% and the “Adverse events (any)” value ([1]; Grade 3) was 11 (34.4) Number of patients (%). The “Grade 3 or higher ADRs” value ([1]; Grade 3 only, 6 patients of 32) was 18.8%, the “Adverse events (any)” value ([1]; Grade 4) was 2 (6.3) Number of patients (%) and the “Adverse events (any)” value ([1]; Grade 5) was 0 Number of patients (%). For the same compound, the ADR faeces pale ([1]; safety analysis set n=32) was 18.8%, the ADR flatulence ([1]; safety analysis set n=32) was 12.5% and the “ADR injection site induration” value ([1]; safety analysis set n=32) was 28.1%. For the same compound, the “Grade 4/5 ADRs and ADRs necessitating discontinuation of the study drug” value ([1]; safety analysis set n=32) was “did not occur”, the “serious ADR pyrexia” value ([1]; safety analysis set n=32) was 3.1% and the “patients with AEs related to study drug (ADRs)” value ([1]; safety analysis set n=32, 27 patients) was 84.4%. The “patients with AEs” value ([1]; safety analysis set n=32, 31 patients) was 96.9%, the “patients positive for anti-lanreotide antibodies” value ([2]; 2 patients, RIPA) was 6.3% and the Anti-lanreotide antibody test ([2]; Patient A, Baseline) was “Negative”. For the same compound, the Anti-lanreotide antibody test ([2]; Patient A, Week 4) was “Negative”, the Anti-lanreotide antibody test ([2]; Patient A, Week 8) was “Negative” and the Anti-lanreotide antibody test ([2]; Patient A, Week 12) was “Negative”. For the same compound, the Anti-lanreotide antibody test ([2]; Patient A, Week 16) was “Positive”, the Antibody titer ([2]; Patient A, Week 16) was 1/1 and the Anti-lanreotide antibody test ([2]; Patient A, Week 20) was “Negative”. The Anti-lanreotide antibody test ([2]; Patient A, Week 24) was “Negative”, the Anti-lanreotide antibody test ([2]; Patient A, Week 36) was “Positive” and the Antibody titer ([2]; Patient A, Week 36) was 1/2. For the same compound, the Anti-lanreotide antibody test ([2]; Patient B, Baseline) was “Negative”, the Anti-lanreotide antibody test ([2]; Patient B, Week 4) was “Negative” and the Anti-lanreotide antibody test ([2]; Patient B, Week 8) was “Positive”. The Antibody titer ([2]; Patient B, Week 8) was 1/4, the Anti-lanreotide antibody test ([2]; Patient B, Week 12) was “Positive” and the Antibody titer ([2]; Patient B, Week 12) was 1/32. The Anti-lanreotide antibody test ([2]; Patient B, Week 16) was “Positive”, the Antibody titer ([2]; Patient B, Week 16) was 1/32 and the Anti-lanreotide antibody test ([2]; Patient B, Week 20) was “Positive”. The Antibody titer ([2]; Patient B, Week 20) was 1/64, the Anti-lanreotide antibody test ([2]; Patient B, Week 24) was “Positive” and the Antibody titer ([2]; Patient B, Week 24) was 1/64. For the same compound, the Anti-lanreotide antibody test ([2]; Patient B, Week 36) was “Positive”, the Antibody titer ([2]; Patient B, Week 36) was 1/256 and the Anti-lanreotide antibody test ([2]; Patient B, Week 48) was “Positive”. For the same compound, the Antibody titer ([2]; Patient B, Week 48) was 1/512, the “number of doses to near-steady state” value ([3]; 120 mg every 4 weeks) was 3 doses and the Tmax ([3]; human, in vivo, injection at 20 weeks after the first injection, read-out: median time to reach the maximum serum concentration) was 3.8 h. For the same compound, the Tmax ([3]; human, in vivo, serum, PPS 28 patients, read-out: time of Cmax after the first injection (median)) was 3.9 h, the Cmax ([3]; human, in vivo, 120 mg every 4 weeks, PPS 28 patients, mean ± SD, read-out: Cmax at 20 weeks after the first injection) was 24.2 ± 20.2 ng/mL and the level at 672 h ([3]; human, serum, sc, 120 mg, PPS 28 patients, read-out: serum concentration at 4 weeks after the first injection, before injection (trough, mean ± SD)) was 3.1 ± 1.4 ng/mL. The level at 4032 h ([3]; human, serum, sc, 120 mg every 4 weeks, PPS 28 patients, mean ± SD, read-out: trough concentration at 24 weeks after the first injection) was 6.1 ± 3.3 ng/mL, the “Cmax after the first injection (mean ± SD)” value ([3]; serum, 120 mg deep s.c., PPS 28 patients, RIA) was 20.2 ± 18.2 ng/mL and the “median PFS” value ([4]; up to 96 weeks (24 months), placebo 18.0 months) was “not reached”. The “hazard ratio for PFS vs placebo” value ([4]; 95% CI 0.30-0.73, P < 0.001) was 0.47 and the “number of injections to steady state” value [5] was 6 injections.
